Values after ≈ are worked out from the molar mass of the structure shown.
Assay: Dissolution study of hydrophobic moieties in acetonitrile / 20 mM ammonium bicarbonate buffer solutions
Assay type: physicochemical
Conditions: for Observed Solubility: 21° C.; for solubility: 21 °C, aqueous with cosolvent or surfactant or cyclodextrin, thermodynamic from solid
Protocol: A dissolution study was performed on compounds 3 (commercially available—Sigma Aldrich P/N 172839 99%) 6, and 8 (Synthesis described above) at 21° C. in different buffer solutions containing a mixture of standard chromatographic solvents, e.g., acetonitrile and 20 mM aqueous […]. 20 mM aqueous ammonium bicarbonate was made by dissolving 474 mg ammonium bicarbonate in 300 mL MiliQ water.

[1] = 10% acetonitrile buffer solution, stated weight in stated buffer volume (3: 180 mL; 6: 120 mL; 8: 24 mL)
[2] = 30% acetonitrile buffer solution, stated weight in stated buffer volume (3: 50 mL; 6: 10 mL; 8: 1.4 mL)
[3] = 10 mL acetonitrile and 90 mL 20 mM ammonium bicarbonate (10% acetonitrile)
[4] = 30 mL acetonitrile and 70 mL 20 mM ammonium bicarbonate (30% acetonitrile)

Structure (SMILES)	Observed Solubility [1]	Observed Solubility [2]	solubility [3] [µg/mL]	solubility [4] [µg/mL]	Observed Solubility (30% acetonitrile buffer solution, stated weight in stated buffer volume (3: 50 mL; 6: 10 mL; 8: 1.4 mL), 70 mg in 10 mL buffer)	Observed Solubility (30% acetonitrile buffer solution, stated weight in stated buffer volume (3: 50 mL; 6: 10 mL; 8: 1.4 mL), 90 mg in 10 mL buffer)
CCCCCCCCCCCC(C)=O [Compound 3, reference compound]	At 6 mg: Not dissolved	At 30 mg: Not dissolved	< 30	< 1000	–	–
CCCCCCCCCCCOCC(O)CO (stereo not drawn) [Compound 6, 3-(undecyloxy)-1,2-propanediol]	At 6 mg: Not dissolved	–	< 50	~8000 (≈ 32.5 mM)	At 70 mg: Dissolved	At 90 mg: Not dissolved
CCCCCCCCCOCC(O)CO (stereo not drawn) [Compound 8, 3-nonoxypropane-1,2-diol]	–	At 200 mg: Dissolved	~500 (≈ 2.29 mM)	~140000 (≈ 641 mM)	–	–
